# Measured values taken from PubChem BioAssay AID2060627 (Molecular Pharmacology Branch, DTP, NCI, 2025).
# System: 156681-154-R-J1-PDC complex spheroid viability
# Assay: Anticancer human tumor 156681-154-R-J1-PDC patient-derived melanoma cell line growth inhibition [CLK]
# Conditions: for IC50: curve of first compound; for viability, T/C: stronger effect = lower value
# Excerpt: A high-throughput screen of multi-cell type tumor spheroids was designed to identify active combinations of […] and targeted small molecules. Complex spheroids include a stromal component modeled by human endothelial cells (HUVEC) and fibroblasts modeled by human mesenchymal stem cells (MSCs). The concentration ranges selected for each drug and investigational agent were based upon clinically achievable concentrations if the clinical Cmax of the agent was known.
# Compounds. The drugs and investigational agents: cirtuvivint (SM08502; NSC835563), CC-671 (NSC850746), vemurafenib (NSC761431), tapotoclax (NSC804041), sotorasib (NSC818433), adagrasib (NSC831453), MRTX-1133 (NSC836407), BAY2416964 (NSC825713), copanlisib (NSC816437), inavolisib (NSC800729), abemaciclib (NSC768073), osimertinib (NSC779217), entinostat (NSC756642), eltanexor (KPT-8602, NSC794443), venetoclax (NSC766270), ceralasertib (NSC777638), bortezomib (NSC756655), olaparib (NSC753686), talazoparib (NSC767125), alisertib (NSC759677), peposertib (NSC802822), gemcitabine (NSC613327), 5-fluorouracil (NSC19893), SN-38 (NSC673596), oxaliplatin (NSC266046), paclitaxel (NSC125973), and doxorubicin (NSC123127), were obtained from the National Cancer Institute (NCI) Developmental Therapeutics Program Chemical Repository. The FDA-approved anticancer drug set is available from the Developmental Therapeutics Program at https://dtp.cancer.gov/organization/dscb/obtaining/available plates.htm. […] The stock solutions were prepared in dimethyl sulfoxide (DMSO, Sigma-Aldrich, St. Louis, MO, cat. D2650), except for the platinum complexes which were prepared in saline (Quality Biological, Gaithersburg, MD, cat. 114-055-101), at 800-fold the tested concentration and stored at -70 degrees C prior to their use. All drugs and investigational agents were tested over a range starting from a high concentration at or near the clinical Cmax and decreasing in half-log increments. If the clinical Cmax for an agent had not been determined, the highest concentration tested was 10 microM.
# Cell Culture. All cells were maintained in an incubator at 37 degrees C and 5% CO2 with 95% humidity. The PDC lines were cultured according to standard operating procedures established by the NCI PDMR. Briefly, all PDCs were thawed and cultured in Matrigel-coated flasks prepared with a working solution of 1X Ham's F-12 nutrient mix, without supplementation (Invitrogen, Waltham, MA, cat. 11765054), 100 U/mL penicillin-streptomycin (Invitrogen, cat. 15140122), and 2.5% Matrigel (Corning Inc., Corning, NY, cat. 354248) for the first three passages. The 947758-054-R-J2-PDC line was cultured in 6B/Colon 1A media, which includes advanced DMEM/F-12 (Thermo Fisher Scientific, cat. 12634028), 10 mM HEPES (Thermo Fisher Scientific, cat. 15630080), 1X GlutaMAX supplement (Thermo Fisher Scientific, cat. 35050061), 0.1 mg/mL primocin (InvivoGen, cat. ant-pm-2), 10% defined fetal bovine serum, heat inactivated (HyClone Laboratories Inc., cat. SH30070.03HI), 1.25 mM N-Acetyl-L-cysteine (Sigma-Aldrich, cat. A9165), 10 mM nicotinamide (Sigma-Aldrich, cat. N0636), 1X B-27 supplement (Thermo Fisher Scientific, cat. 17504044), 1X N-2 supplement (Thermo Fisher Scientific, cat. 17502048), and 10 microM Y-27632 dihydrochloride (Tocris Bioscience, cat. 1254). The 876862-298-R-J1-PDC was cultured in 6E media, which includes all 6B/Colon 1A media components plus 50% L-WRN conditioned media (ATCC, cat. CRL-3276), 50 ng/mL recombinant human EGF recombinant protein (hEGF; Thermo Fisher Scientific, cat. PHG0311), 10 ng/mL recombinant human fibroblast growth factor 10 (hGFG-10; PeproTech, cat. 100-26), 1 ng/mL recombinant human fibroblast growth factor 2 (hFGF-2; PeproTech, cat. 100-18B), and 1 µM prostaglandin E2 (PGE2; Tocris, cat. 2296). The 227483-062-R1-J1-PDC line was cultured in Panc media, containing all 6E components except hFGF-2, with the addition of 500 nM SB-431542 (Selleckchem, cat. S1067) and 10 nM gastrin (Tocris, cat. 3006). […]
# 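Further: spheroids exposed to the agents for seven days.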
# 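Wherever viability, T/C is given: 100% = DMSO vehicle control viability.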
smiles,measurement,setting,value
C=CC(=O)Nc1cc(Nc2nccc(-c3cn(C)c4ccccc34)n2)c(OC)cc1N(C)CCN(C)C + CNC(=O)c1ccc(Nc2nc(OC3CCCC3)c3c(-c4ccc5nc(C)oc5c4)c[nH]c3n2)c(OC)c1,IC50,second compound 0.0316 µM,> 300 nM
same,IC50,second compound 0.1 µM,> 300 nM
same,IC50,second compound 0.316 µM,> 300 nM
same,IC50,second compound 1 µM,242 nM
same,IC50,second compound 3.16 µM,2.45 nM
same,IC50,second compound 10 µM,< 0.949 nM
same,"viability, T/C","second compound 0.0316 µM, first compound 0.000949 µM",82.8%
same,"viability, T/C","second compound 0.0316 µM, first compound 0.003 µM",97.7%
same,"viability, T/C","second compound 0.0316 µM, first compound 0.00949 µM",90.6%
same,"viability, T/C","second compound 0.0316 µM, first compound 0.03 µM",111%
same,"viability, T/C","second compound 0.0316 µM, first compound 0.0949 µM",109%
same,"viability, T/C","second compound 0.0316 µM, first compound 0.3 µM",90%
same,"viability, T/C","second compound 0.1 µM, first compound 0.000949 µM",67.7%
same,"viability, T/C","second compound 0.1 µM, first compound 0.003 µM",64.1%
same,"viability, T/C","second compound 0.1 µM, first compound 0.00949 µM",61.8%
same,"viability, T/C","second compound 0.1 µM, first compound 0.03 µM",68.5%
same,"viability, T/C","second compound 0.1 µM, first compound 0.0949 µM",64.3%
same,"viability, T/C","second compound 0.1 µM, first compound 0.3 µM",64.8%
same,"viability, T/C","second compound 0.316 µM, first compound 0.000949 µM",71.5%
same,"viability, T/C","second compound 0.316 µM, first compound 0.003 µM",64.8%
same,"viability, T/C","second compound 0.316 µM, first compound 0.00949 µM",83.1%
same,"viability, T/C","second compound 0.316 µM, first compound 0.03 µM",62.7%
same,"viability, T/C","second compound 0.316 µM, first compound 0.0949 µM",63.2%
same,"viability, T/C","second compound 0.316 µM, first compound 0.3 µM",64%
same,"viability, T/C","second compound 1 µM, first compound 0.000949 µM",62.1%
same,"viability, T/C","second compound 1 µM, first compound 0.003 µM",56%
same,"viability, T/C","second compound 1 µM, first compound 0.00949 µM",53.5%
same,"viability, T/C","second compound 1 µM, first compound 0.03 µM",48.2%
same,"viability, T/C","second compound 1 µM, first compound 0.0949 µM",64.8%
same,"viability, T/C","second compound 1 µM, first compound 0.3 µM",43.6%
same,"viability, T/C","second compound 3.16 µM, first compound 0.000949 µM",50.1%
same,"viability, T/C","second compound 3.16 µM, first compound 0.003 µM",57.6%
same,"viability, T/C","second compound 3.16 µM, first compound 0.00949 µM",35.2%
same,"viability, T/C","second compound 3.16 µM, first compound 0.03 µM",47.2%
same,"viability, T/C","second compound 3.16 µM, first compound 0.0949 µM",37.9%
same,"viability, T/C","second compound 3.16 µM, first compound 0.3 µM",29.1%
same,"viability, T/C","second compound 10 µM, first compound 0.000949 µM",44.9%
same,"viability, T/C","second compound 10 µM, first compound 0.003 µM",41.8%
same,"viability, T/C","second compound 10 µM, first compound 0.00949 µM",31.9%
same,"viability, T/C","second compound 10 µM, first compound 0.03 µM",43.1%
same,"viability, T/C","second compound 10 µM, first compound 0.0949 µM",45%
same,"viability, T/C","second compound 10 µM, first compound 0.3 µM",24.2%
